Values after ≈ are worked out from the molar mass of the structure shown.
Assays:
[1] = Solubility of the compound; type: physicochemical
[2] = Metabolic stability in human liver microsomes assessed as parent compound remaining after 30 mins; type: ADME, Microsome; details: read-out: Stability
[3] = Metabolic stability in mouse liver microsomes assessed as parent compound remaining after 30 mins; type: ADME, Microsome; details: read-out: Stability
[4] = biological target: T1, Isocitrate dehydrogenase [NADP] cytoplasmic (Homo sapiens, UniProt O75874, R132C); assay: Inhibition of recombinant human Myc-DDK-tagged IDH1 R132C mutant using alpha-ketoglutarate as substrate preincubated for 15 mins followed by substrate and NADPH addition and measured after 45 mins by diaphorase/resazurin dye based assay
Target sequence in this assay (O75874 2-414 R132C limits assumed): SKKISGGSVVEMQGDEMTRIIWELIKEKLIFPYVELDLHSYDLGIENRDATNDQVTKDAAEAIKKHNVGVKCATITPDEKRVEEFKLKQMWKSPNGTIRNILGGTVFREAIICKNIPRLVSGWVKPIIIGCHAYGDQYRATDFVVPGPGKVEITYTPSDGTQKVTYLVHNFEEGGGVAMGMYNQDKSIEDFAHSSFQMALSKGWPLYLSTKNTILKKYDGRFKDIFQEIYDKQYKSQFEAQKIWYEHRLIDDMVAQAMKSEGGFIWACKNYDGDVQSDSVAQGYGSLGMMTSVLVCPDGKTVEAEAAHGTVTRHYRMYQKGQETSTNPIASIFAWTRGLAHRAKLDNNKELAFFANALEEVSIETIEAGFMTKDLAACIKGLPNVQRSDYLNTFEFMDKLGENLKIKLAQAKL

[5] = biological target: T2, Isocitrate dehydrogenase [NADP] cytoplasmic (Homo sapiens, UniProt O75874, R132H); assay: Inhibition of IDH1 R132H mutant in human HCT116 cells assessed as reduction in 2-HG levels after 24 hrs by RapidFire high-throughput mass spectrometry assay; type: cell-based
Target sequence in this assay (O75874 whole entry R132H): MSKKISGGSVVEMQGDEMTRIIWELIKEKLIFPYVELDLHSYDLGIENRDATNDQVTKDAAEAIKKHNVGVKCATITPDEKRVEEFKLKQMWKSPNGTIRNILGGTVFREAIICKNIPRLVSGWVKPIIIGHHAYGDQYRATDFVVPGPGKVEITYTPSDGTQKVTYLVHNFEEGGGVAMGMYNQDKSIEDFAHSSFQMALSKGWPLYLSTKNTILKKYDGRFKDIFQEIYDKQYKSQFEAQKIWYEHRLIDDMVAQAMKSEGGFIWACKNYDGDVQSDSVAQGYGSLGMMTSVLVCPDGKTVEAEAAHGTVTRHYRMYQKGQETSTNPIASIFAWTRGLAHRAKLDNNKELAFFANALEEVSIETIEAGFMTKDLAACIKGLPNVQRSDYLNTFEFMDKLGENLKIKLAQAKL

[6] = biological target: T1, Isocitrate dehydrogenase [NADP] cytoplasmic; assay: Inhibition of IDH1 R132C mutant in human HCT116 cells assessed as reduction in 2-HG levels after 24 hrs by RapidFire high-throughput mass spectrometry assay; type: cell-based
Target sequence in this assay (O75874 whole entry R132C): as the sequence (O75874 whole entry R132H) above, with H132C counted along it

[7] = biological target: T2, Isocitrate dehydrogenase [NADP] cytoplasmic; assay: Inhibition of recombinant human Myc-DDK-tagged IDH1 R132H mutant using alpha-ketoglutarate as substrate preincubated for 15 mins followed by substrate and NADPH addition and measured after 45 mins by diaphorase/resazurin dye based assay
Target sequence in this assay (O75874 2-414 R132H limits assumed): as the sequence (O75874 2-414 R132C limits assumed) above, with C131H counted along it

[8] = Free Cmax in CD1 mouse at 100 mg/kg, po administered as single dose; type: ADME, organism-based; details: in vivo
[9] = test system: Mus musculus; assay: In vivo inhibition of IDH1 R132H mutant in human HCT116 cells xenografted in po dosed BALB/c nude mouse assessed as reduction in tumor 2-HG level administered at 12 hrs intervals for 3 times measured up to 24 hrs post-last dose by LC-MS analysis; type: functional
[10] = test system: Mus musculus; assay: In vivo inhibition of IDH1 R132C mutant in human HCT116 cells xenografted in po dosed BALB/c nude mouse assessed as reduction in tumor 2-HG level administered at 12 hrs intervals for 3 times measured up to 24 hrs post-last dose by LC-MS analysis; type: functional
[11] = test system: Mus musculus; assay: In vivo inhibition of IDH1 R132H mutant in human HCT116 cells xenografted in BALB/c nude mouse assessed as reduction in tumor 2-HG level at 50 mg/kg, po administered at 12 hrs intervals for 3 times measured up to 24 hrs post-last dose by LC-MS analysis relative to control; type: functional; details: HCT-116, po
[12] = Apparent permeability across apical to basolateral side in human Caco2 cells; type: ADME, cell-based; details: caco-2
[13] = Kinetic solubility of the compound at pH 7.4; type: physicochemical; details: buffer, read-out: Kinetic_solubility
[14] = Permeability of the compound by PAMPA; type: ADME; details: read-out: permeability
[15] = Time at which fCmax required to show >90% suppression of 2-HG level in human HCT116 cells xenografted BALB/c nude mouse in CD1 mouse at 100 mg/kg, po; type: ADME, organism-based; details: in vivo
[16] = test system: Mus musculus; assay: In vivo inhibition of IDH1 R132C mutant in human HCT116 cells xenografted in BALB/c nude mouse assessed as reduction in tumor 2-HG level at 50 mg/kg, po administered at 12 hrs intervals for 3 times measured at 12 to 24 hrs post-last dose by LC-MS analysis relative to control; type: functional; details: HCT-116, po
[17] = Free Cmax in CD1 mouse at 100 mg/kg, po administered as single dose measured after 7 hrs; type: ADME, organism-based; details: in vivo
[18] = Apparent permeability across basolateral to apical side in human Caco2 cells; type: ADME, cell-based; details: caco-2

Compound	solubility [1] [µM]	remaining at 0.5 h [2] [%]	remaining at 0.5 h [3] [%]	IC50 [7] [nM]	other results
COc1cc2[nH]c(=O)c([C@H](C)Nc3ccc(C#N)n(C)c3=O)cc2cc1Cl	11.6 (≈ 4.46 µg/mL)	83	–	–	–
Cn1cccc(NCc2cc3cc(Cl)ccc3[nH]c2=O)c1=O	54 (≈ 17.1 µg/mL)	90	26	–	–
C[C@H](Nc1ccc(C#N)n(C)c1=O)c1cc2cc(Cl)c(F)cc2[nH]c1=O	18 (≈ 6.71 µg/mL)	100	–	25	IC50 [4]: 159 nM; IC50 [5]: 22 nM; IC50 [6]: 104 nM
N#Cc1ccc(NCc2cc3cc(Cl)ccc3[nH]c2=O)c(=O)[nH]1	2.21 (≈ 0.722 µg/mL)	100	86	64.7	–
O=c1[nH]c2ccc(Cl)cc2cc1CNc1cccn(C2CC2)c1=O	56 (≈ 19.1 µg/mL)	78	7	–	–
C[C@H](Nc1ccc(C#N)n(C)c1=O)c1cc2cc(Cl)c(OCC3CC3)cc2[nH]c1=O	0.53 (≈ 0.225 µg/mL)	82	–	–	–
Cn1c(C(F)(F)F)ccc(NCc2cc3cc(Cl)ccc3[nH]c2=O)c1=O	< 0.1	85	67	160	–
C[C@H](Nc1ccc(C#N)n(C)c1=O)c1cc2cc(Cl)c(OCc3ccccn3)cc2[nH]c1=O	2.5 (≈ 1.15 µg/mL)	66	–	–	–
C[C@H](Nc1ccc(C#N)n(C)c1=O)c1cc2cc(Cl)c(O[C@H](C)c3ccccn3)cc2[nH]c1=O	1.6 (≈ 0.761 µg/mL)	70	–	–	–
COc1cccc(NCc2cc3cc(Cl)ccc3[nH]c2=O)c1	0.28 (≈ 0.0881 µg/mL)	78	19	> 25000	–
CN1CCCC(NCc2cc3cc(Cl)ccc3[nH]c2=O)C1=O (stereo unspecified)	94 (≈ 30.1 µg/mL)	99	83	25000	–
Cn1c(C#N)ccc(NCc2cc3cc(Cl)ccc3[nH]c2=O)c1=O	0.295 (≈ 0.101 µg/mL)	99	73	–	–
CCn1cccc(NCc2cc3cc(Cl)ccc3[nH]c2=O)c1=O	10 (≈ 3.3 µg/mL)	72	7	–	–
C[C@H](Nc1ccc(C#N)n(C)c1=O)c1cc2cc(Cl)ccc2[nH]c1=O [OLUTASIDENIB]	34.5 (≈ 12.2 µg/mL)	100	92	–	fCmax [8]: 200 nM; fIC50 [9]: 26 nM; fIC50 [10]: 36 nM; inhibition in vivo at 50 mg/kg [11]: > 90%; Papp [12]: 12.12 ×10⁻⁶ cm/s; solubility kinetic [13]: 35.4 µM (≈ 12.6 µg/mL); Papp [14]: 19.9 ×10⁻⁶ cm/s; Time [15]: 7 h; inhibition in vivo at 50 mg/kg [16]: > 90%; fCmax [17]: 130 nM; Papp [18]: 9.01 ×10⁻⁶ cm/s

Reference: ChEMBL document CHEMBL4321881 (J Med Chem, 2020)
